Data published in article PMC9281306 (ACS Omega, 2022).
Read-outs that look alike come from different tables or passages of the source. One block for each molecule: values may come before it. Where a SMILES comes first, the peptide text is derived from it. [ ]: non-standard residue; d: D form.

Assays:
[1] = system: Mabs ATCC 19977S smooth morphotype; assay: Mabs microdilution antimicrobial assay with purified peptides; type: cell-based, Mycobacterium abscessus; details: purified peptide, MHB with EDTA 100 μM, 96 h, 37 °C, OD600, three independent experiments
[2] = system: Mabs ATCC 19977R rough morphotype; assay: as above; type: cell-based, Mycobacterium abscessus; details: purified peptide, MHB with EDTA 100 μM, 96 h, 37 °C, OD600, three independent experiments
[3] = system: human red blood cell (hRBC); assay: hRBC hemolytic assay; type: cell-based
[4] = system: E. coli urinary tract infection clinical isolates; details: MIC in MHB, 22 h, 37 °C, triplicate
[5] = system: E. coli (ATCC 25922); assay: Cross-inhibitory activity assay; type: cell-based, Escherichia coli; details: MHB, 24 h, 37 °C; EDTA not given
[6] = system: MRSA USA300; assay: Cross-inhibitory activity assay; type: cell-based, Staphylococcus aureus; details: MHB, 24 h, 37 °C; EDTA not given
[7] = system: P. aeruginosa (ATCC 27853); assay: Cross-inhibitory activity assay; type: cell-based, Pseudomonas aeruginosa; details: MHB, 24 h, 37 °C; EDTA not given

Molecule: Triton X-100 [reference compound]
hRBC lysis by positive control ([3]; 1%, 4% hRBC in saline, 37 °C, OD475): complete hRBC lysis

Molecule: CC1(C)S[C@@H]2[C@H](NC(=O)[C@H](N)c3ccccc3)C(=O)N2[C@H]1C(=O)O [Ampicillin]
Ampicillin susceptibility ([4]; E. coli clinical isolate 23): susceptible
Ampicillin susceptibility ([4]; E. coli clinical isolate 36): resistant
Ampicillin susceptibility ([4]; E. coli clinical isolate 97): resistant
Ampicillin susceptibility ([4]; E. coli clinical isolate 98): resistant

Molecule: CC(C)C[C@@H](NC(=O)CNC(=O)[C@@H](Cc1c[nH]c2ccccc12)NC(=O)[C@@H](CCCNC(=N)N)NC(=O)[C@@H](N)CCC(N)=O)C(=O)N[C@@H](CO)C(=O)N[C@H](CC(C)C)C(=O)N[C@@H](C)C(=O)N1CCC[C@H]1C(=O)N[C@@H](Cc1ccc(O)cc1)C(=O)N[C@H](CCCCN)C(=O)N[C@@H](CC(N)=O)C(=O)N[C@@H](Cc1ccccc1)C(=O)N[C@H](CCCNC(=N)N)C(=O)N[C@H](CCCNC(=N)N)C(=O)N[C@H](CC(C)C)C(=O)N[C@@H](CO)C(N)=O [ASU2056] (H-Q[dR][dW]G[dL]S[dL]APY[dK]NF[dR][dR][dL]S-NH2)
E. coli ATCC 25922 MIC [5]: 16 µM
Mabs ATCC19977S MIC [1]: 32 µM
Mabs ATCC19977R MIC [2]: >256 µM
MRSA USA300 MIC [6]: >32 µM
P. aeruginosa ATCC 27853 MIC [7]: >32 µM

Molecule: CC(C)C[C@@H](NC(=O)[C@@H](C)NC(=O)CNC(=O)[C@@H](CC(C)C)NC(=O)[C@@H](CCCCN)NC(=O)[C@@H](CCCNC(=N)N)NC(=O)[C@@H](CCCNC(=N)N)NC(=O)[C@H](CC(N)=O)NC(=O)[C@H](Cc1ccc(O)cc1)NC(=O)[C@@H](CCCNC(=N)N)NC(=O)[C@H](C)NC(=O)[C@H](CO)NC(=O)[C@@H](CCCNC(=N)N)NC(=O)CNC(=O)[C@@H](N)Cc1ccc(O)cc1)C(=O)N[C@@H](CO)C(=O)NCC(N)=O [ASU2059] (H-YG[dR]SA[dR]YN[dR][dR][dK][dL]G[dA][dL]SG-NH2)
Mabs ATCC19977S MIC [1]: 256 µM
Mabs ATCC19977R MIC [2]: 256 µM

Continued, in another order:

Mabs ATCC19977S MIC [1]: 256 µM
Mabs ATCC19977R MIC [2]: 256 µM
Molecule: CC(C)C[C@@H](NC(=O)[C@@H](C)NC(=O)[C@@H](CCCCN)NC(=O)[C@@H](CCCNC(=N)N)NC(=O)[C@H](Cc1ccccc1)NC(=O)[C@H](CCC(N)=O)NC(=O)[C@H](CC(N)=O)NC(=O)[C@@H](NC(=O)[C@@H](CCCCN)NC(=O)[C@@H](CCCNC(=N)N)NC(=O)[C@H](C)NC(=O)[C@@H](CCCCN)NC(=O)[C@H](CO)NC(=O)[C@@H](CC(C)C)NC(=O)CNC(=O)[C@H](Cc1ccc(O)cc1)NC(=O)[C@H](N)CCCNC(=N)N)C(C)C)C(N)=O [ASU2009] (H-[dR]YG[dL]S[dK]A[dR][dK]VNQF[dR][dK][dA][dL]-NH2)

E. coli ATCC 25922 MIC [5]: 4 µM
Mabs ATCC19977S MIC [1]: 8 µM
Mabs ATCC19977R MIC [2]: 256 µM
MRSA USA300 MIC [6]: 8 µM
P. aeruginosa ATCC 27853 MIC [7]: 8 µM
Molecule: CC(C)C[C@@H](NC(=O)CNC(=O)[C@H](CO)NC(=O)[C@@H](CCCCN)NC(=O)[C@@H](CCCNC(=N)N)NC(=O)[C@@H](Cc1c[nH]c2ccccc12)NC(=O)[C@@H](CCCNC(=N)N)NC(=O)[C@H](Cc1ccccc1)NC(=O)[C@H](CC(N)=O)NC(=O)[C@H](Cc1ccc(O)cc1)NC(=O)[C@@H](CCCNC(=N)N)NC(=O)[C@H](C)NC(=O)[C@H](CO)NC(=O)[C@@H](Cc1c[nH]c2ccccc12)NC(=O)[C@@H](CCCNC(=N)N)NC(=O)CNC(=O)[C@@H](N)C(C)C)C(N)=O [ASU2060] (H-VG[dR][dW]SA[dR]YNF[dR][dW][dR][dK]SG[dL]-NH2)
hRBC hemolysis ([3]; 32 µM): less than 1%

Mabs ATCC19977S MIC [1]: 256 µM
Mabs ATCC19977R MIC [2]: 256 µM
Molecule: CC(C)C[C@@H](NC(=O)[C@@H](C)NC(=O)[C@H](CO)NC(=O)[C@@H](CCCCN)NC(=O)[C@@H](CCCNC(=N)N)NC(=O)[C@@H](CCCNC(=N)N)NC(=O)[C@H](Cc1ccccc1)NC(=O)[C@@H](CC(C)C)NC(=O)[C@H](CC(N)=O)NC(=O)[C@H](Cc1c[nH]cn1)NC(=O)[C@@H]1CCCN1C(=O)[C@H](C)NC(=O)[C@H](CO)NC(=O)[C@@H]1CCCN1C(=O)CNC(=O)[C@@H](NC(=O)[C@H](N)CCCNC(=N)N)C(C)C)C(N)=O [ASU2019] (H-[dR]VGPSAPHN[dL]F[dR][dR][dK]S[dA][dL]-NH2)
